# In patent US8536115B2, “Compositions and methods for modulating AMPA receptor-mediated excitotoxicity” (Centre for Addiction and Mental Health, priority 2006, dated 2013):
# No end group written: not given here.
# How the values were obtained:
# GAPDH:AMPAR complex [1] = molecular target: T1, GAPDH:AMPAR complex (Homo sapiens, UniProt P04406); test: Co-immunoprecipitation of GAPDH with GluR2 in HEK-293T cells expressing GluR1/GluR2; assay type: cell-based
# T1 construct: It should be noted that HEK293T cells expresses endogenous GAPDH; expressed in transfected cells; host or cells: HEK-293T (GluR1 and GluR2 transfected; GAPDH endogenous)
# T1 sequence (P04406 2-335 limits assumed, one chain of several): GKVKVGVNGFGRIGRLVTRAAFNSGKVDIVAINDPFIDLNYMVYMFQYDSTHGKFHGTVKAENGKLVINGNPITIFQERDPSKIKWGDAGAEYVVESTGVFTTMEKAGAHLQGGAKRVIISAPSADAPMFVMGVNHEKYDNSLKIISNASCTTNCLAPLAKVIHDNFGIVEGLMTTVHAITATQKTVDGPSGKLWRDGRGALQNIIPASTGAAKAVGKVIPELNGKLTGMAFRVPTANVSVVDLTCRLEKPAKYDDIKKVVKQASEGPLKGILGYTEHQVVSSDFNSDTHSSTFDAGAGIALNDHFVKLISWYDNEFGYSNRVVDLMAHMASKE
# Method: (§1) Protein affinity purification, in vitro binding, co-immunoprecipitation and Western blot analyses were performed as previously described (73, 79). Antibodies used for immunoprecipitation, Western blots and cell surface ELISA assays included GAPDH (polyclonal from Abcam, monoclonal from Chemicon), GluR2 (Western blots: Chemicon; immunoprecipitation: Upstate), HA (monoclonal, Covance), α-tubulin (monoclonal, Sigma-Aldrich), LaminB1 (Zymed Laboratories).
# [2] = test system: HEK-293T cells expressing GluR1/2; test: Quantification of AMPAR-mediated cell death (propidium iodide fluorescence) in HEK-293T cells expressing GluR1/2; assay type: cell-based; details: for attenuation/inhibition of AMPAR-mediated (glutamate-induced) cell death: pretreatment 10 μM, 1 hr, 300 μM glutamate, 25 μM CTZ, 24 hr, n=9
# Method: (§2) Cells were allowed to recover for 24 hours at 37° C. To quantify AMPA-mediated cell death, culture medium was replaced by extracellular solution containing 50 μg/ml of propidium iodide (PI) (Invitrogen). After 30 minutes incubation at 37° C., fluorescence intensity in each well was measured with a plate reader (Victor3; PerkinElmer). […] Primary hippocampal neurons were exposed to 100 μM KA/25 μM cyclothiazide in medium at 37° C. for 1 hour, at 37° C.
# [3] = test system: HEK-293T cells expressing NR1-1a/2A NMDA receptor; test: NR1-1a/2A NMDA receptor-mediated cell death in HEK-293T cells; assay type: cell-based; details: depletion of calcium with 5 mM EGTA; n=9
# [4] = test system: HEK-293T cells expressing GluR1/3; test: GluR1/3 AMPAR-mediated cell death in HEK-293T cells; assay type: cell-based; details: pre-incubation; HEK-293T expressing GluR1/3
# Method: as §2
# p53 = molecular target: T2, p53 (Rattus norvegicus, UniProt P10361); test: Affinity pull down of p53 from rat hippocampal extracts by GST-GAPDH fragments; assay type: binding
# T2 construct: from tissue; host or cells: solubilized nuclear proteins / extracts of rat hippocampus
# T2 sequence (P10361 whole entry, the tested form may be a part): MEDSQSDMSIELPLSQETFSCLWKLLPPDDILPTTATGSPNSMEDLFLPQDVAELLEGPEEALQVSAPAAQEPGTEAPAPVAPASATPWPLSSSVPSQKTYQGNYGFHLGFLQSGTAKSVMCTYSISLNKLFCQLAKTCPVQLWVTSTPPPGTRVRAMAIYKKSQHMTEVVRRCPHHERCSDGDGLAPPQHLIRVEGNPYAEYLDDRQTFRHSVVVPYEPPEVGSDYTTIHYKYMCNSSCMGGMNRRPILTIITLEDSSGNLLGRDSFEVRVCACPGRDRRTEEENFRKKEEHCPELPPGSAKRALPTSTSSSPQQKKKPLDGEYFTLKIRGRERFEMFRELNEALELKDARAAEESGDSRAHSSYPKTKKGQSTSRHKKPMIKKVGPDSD
# Method: as §1
# (§3) Thus, we tested whether GluR2NT and GAPDH can interact with p53 using affinity “pull down” purification experiments. […] To identify the p53 interacting domain on GAPDH, GST-fusion proteins encoding truncated fragments of GAPDH were constructed and used in affinity purification assays (FIG. 24D). […] Furthermore, we confirmed the essential role of I221-E250 in maintaining GAPDH-p53 coupling.
# [35S]-GAPDH = molecular target: T3, [35S]-GAPDH (Homo sapiens, UniProt P04406); test: In vitro binding (blot overlay) with [35S]-GAPDH probe; details: in vitro binding assay
# T3 construct: made in house
# T3 sequence (P04406 whole entry): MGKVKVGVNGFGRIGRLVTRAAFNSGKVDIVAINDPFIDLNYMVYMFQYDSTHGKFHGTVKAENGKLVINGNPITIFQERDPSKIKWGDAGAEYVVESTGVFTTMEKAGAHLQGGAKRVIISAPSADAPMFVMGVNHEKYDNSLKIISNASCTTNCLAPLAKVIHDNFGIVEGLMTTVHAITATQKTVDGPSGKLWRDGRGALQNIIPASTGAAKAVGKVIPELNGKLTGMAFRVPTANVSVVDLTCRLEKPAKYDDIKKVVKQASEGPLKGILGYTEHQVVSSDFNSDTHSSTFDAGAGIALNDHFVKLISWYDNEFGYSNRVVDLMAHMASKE
# Method: as §1
# In order to delineate the region of the GluR2NT involved in the interaction with the GAPDH, three GluR2NT GST-fusion proteins [GluR2 NTa V22-S271, (250 a.a), GluR2 NTb K272-421, (150 a.a), GluR2 NTc L422-E545, (124 a.a)] were constructed (FIG. 4A). In affinity purification assays, GluR2 NTa, but not GluR2 NTb, GluR2 NTc or GST alone precipitated GAPDH in rat hippocampal brain extract (FIG. 4B). […] To clarify the nature of the interaction, blot overlay experiments were performed, which provided in vitro evidence for a direct interaction. GluR2 NTa, GluR2 NTb and GluR2 NTc were probed with in vitro translated [35S]-methionine labelled peptides encoding GAPDH ([35S]-GAPDH). The [35S]-GAPDH probe bound with GluR2 NTa, but not GluR2 NTb or GluR2 NTc. […]
# GAPDH = molecular target: T4, GAPDH (Rattus norvegicus, UniProt P04797); test: Affinity purification of GAPDH from rat hippocampal extracts by GST-fusion proteins; assay type: binding; details: solubilized rat hippocampal extracts
# T4 construct: from tissue; host or cells: detergent extracts of rat hippocampus
# T4 sequence (P04797 whole entry, the tested form may be a part): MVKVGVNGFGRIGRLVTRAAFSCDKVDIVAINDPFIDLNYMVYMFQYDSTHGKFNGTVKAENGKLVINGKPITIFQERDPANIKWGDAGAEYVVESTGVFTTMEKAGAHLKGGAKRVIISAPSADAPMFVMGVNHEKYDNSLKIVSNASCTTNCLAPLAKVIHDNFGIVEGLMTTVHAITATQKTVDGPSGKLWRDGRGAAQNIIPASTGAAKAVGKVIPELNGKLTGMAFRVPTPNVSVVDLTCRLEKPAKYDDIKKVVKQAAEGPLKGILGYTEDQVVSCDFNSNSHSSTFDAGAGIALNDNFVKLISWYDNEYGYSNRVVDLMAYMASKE
# Method: as §1
# We then further divided the GluR2 NTa3 region into 30 amino acids GST-fusion proteins and mini-genes (GluR2 NTa3-1: H122-E141, 20 a.a; GluR2 NT1-3-2 Y142-K172, 30 a.a) to delineate the region of GluR2 NTa3 involved in the interactions (FIG. 6A). GluR2 NT1-3-2, but not GluR2 NTa3-1 or GST alone, precipitated GAPDH in rat hippocampal extracts in affinity purification assays (FIG. 6B). This was also supported by a blot overlay experiment where [35S]-GAPDH probe bound with GluR2 NT1-3-2, but not GluR2 NTa3-1 or GST alone (FIG. 6C).
# hippocampal neurons = test: Nuclear translocation of GAPDH and GluR2 in hippocampal neurons; assay type: cell-based, rat; details: peptide 10 μM, 1 hr; 100 μM KA, 10 μM MK-801, 2 μM nimodipine, 30 min
# Method: (§4) Primary cultures from hippocampus were prepared from fetal Wistar rats (embryonic day 17-19) on Cell^+ (Sarstedt) culture dishes as previously described (73). The cultures were used for experiments on 12-15 d after plating. Hippocampal cultures were pretreated with GluR2 NT1-3-2 peptides before kainic acid treatment.
# as §1
# (§5) Nuclei isolation was prepared as described previously (55, 66). Briefly, cells were gently rinsed twice with ice-cold PBS. And scraped in 1 ml of solution 1 (10 mM Tris-HCl, pH7.4, 100 mM NaCl2, 2.5 mM MgCl2, 0.5% NP-40, proteinase inhibitor and PMSF) per 10-cm plate. Then cells were homogenized by four passages through a 25-gauge needle and spin at 3000 g briefly. Pellets containing nuclei were subsequently utilized in biochemical assays.
# hippocampal CA1 neurons = test: Four vessel occlusion ischemia model, cresyl violet-stained nuclei in CA1; assay type: in vivo, rat; details: 1 μM, 0.5 μl into hippocampus, 5-day recirculation
# Method: In this study, a cannula (small diameter stainless steel tubes) was implanted in the animal one week before surgery. This cannula was used to deliver the peptide GluR2 NT1-3-2 (1 μM, 0.5 μl) into hippocampus where GAPDH-GluR2 interaction is considered to occur. On the surgery day, the four vessel occlusion ischemia model was performed in order to induce ischemia. Animals were treated with the peptide GluR2 NT1-3-2 either before (30 min) or after (2 hour) the induction of ischemia to examine the neuroprotective effect of the peptide. After a 5-day recirculation period, animals were decapitated, the brains were removed and dissected to harvest the hippocampus. Cresyl violet was used to stain alive neurons in hippocampus region of each animal. Cresyl violet-stained nuclei were observed by microscope and total number of stained nuclei in CA 1 region was summarized and normalized to the sham-operated group.
# [5] = test system: transfected HEK-293T cells; test: Cell-ELISA of cell surface GluR2 and GAPDH in transfected HEK-293T cells; assay type: cell-based; details: GluR1/GluR2; glutamate
# Method: Cell-ELISA assays (colorimetric assays) were done essentially as previously described (82). […] Cells were incubated in 1% (W/V) glycine for 10 minutes at 4° C. to recover from the fixing. Cells were then incubated with a monoclonal antibody against specific antibodies for the purpose of labeling the receptors or proteins on the cell surface under non-permeabilized conditions or the entire receptor pool under permeabilized conditions. After incubation with corresponding HRP-conjugated secondary antibodies (Sigma-Aldrich), the HRP substrate o-phenylenediamine (Sigma-Aldrich Co) was added to produce a color reaction that was stopped with the equal volume of 3N HCl. Fluorescence intensity in each well was measured with a plate reader (Victor3; PerkinElmer). […] Afterwards, cells were scrapped from the dishes, and the protein concentration of each dish was measured. The results of cell surface expression of receptors or proteins were calibrated by the protein concentration of each well. Analysis was done using at least 9 separate wells in each group.
# [6] = test system: nontransfected HEK-293T cells; test: Cell death in HEK-293T cells in the absence of GluR1/GluR2 co-expression; assay type: cell-based
# Method: as §2
# [7] = test system: HEK-293T cells cotransfected with GluR1/GluR2; test: Nuclear translocation of GAPDH and GluR2 in HEK-293T cells (nuclei, Western blot); assay type: cell-based; details: peptide 10 μM, 1 hr; glutamate 100 μM, 30 min
# Method: as §1, §5
# GAPDH:AMPAR complex [8] = molecular target: T5, GAPDH:AMPAR complex (Rattus norvegicus, UniProt P04797); test: Co-immunoprecipitation of GAPDH with GluR2 in primary cultures of rat hippocampal neurons; assay type: cell-based; details: preincubation 10 μM, 1 hour; 100 μM kainic acid, 30 min
# T5 construct: endogenous in cells; host or cells: primary hippocampal neurons from fetal Wistar rats
# T5 sequence (P04797 whole entry, one chain of several): as the sequence (P04797 whole entry, the tested form may be a part) above
# Method: as §4, §1
# [9] = test system: cultured rat hippocampal neurons; test: AMPAR-mediated cell death (PI fluorescence) in cultured rat hippocampal neurons; assay type: cell-based; details: 100 μM KA, 10 μM MK-801, 2 μM nimodipine, 1 hr; n=9
# Method: as §4
# Cells were allowed to recover for 24 hours at 37° C. To quantify AMPA-mediated cell death, culture medium was replaced by extracellular solution containing 50 μg/ml of propidium iodide (PI) (Invitrogen). After 30 minutes incubation at 37° C., fluorescence intensity in each well was measured with a plate reader (Victor3; PerkinElmer). […]
# To examine the GAPDH:AMPAR interactions in a relevant cellular milieu, primary cultures of rat hippocampal neurons were utilized in parallel experiments. We have previously shown in FIG. 21C that pre-incubating hippocampal neurons with the GluR2 NT1-3-2 peptide could disrupt the GAPDH-GluR2 interaction that was promoted by AMPAR activation. We subsequently examined if disruption of this interaction in hippocampal neurons could rescue cells from AMPAR-mediated cell death. AMPAR-mediated cell death was induced by pretreating neurons with kainic acid (KA; 100 μM, 1 hour) in the presence of NMDA receptor and Ca^2+ channel antagonists (10 μM MK-801 and 2 μM nimodipine, respectively).
# GAPDH-p53 interaction = test: Co-immunoprecipitation of GAPDH with p53; assay type: cell-based; details: extracted nuclear proteins; AMPAR activation
# Method: as §1, §5, §3
molecule,measurement,setting,value
"N#Cc1cc2c(cc1[N+](=O)[O-])=NC(=O)C(=O)N=2 [CNQX, 6-cyano-7-nitroquinoxaline-2,3-dione]",association between GAPDH and GluR2 with antagonist,GAPDH:AMPAR complex [1]; glutamate-activated AMPA receptor,decreased
"O=C(O)CN(CCOCCOCCN(CC(=O)O)CC(=O)O)CC(=O)O [EGTA, reference compound]",GluR1/GluR2 AMPAR-mediated cell death on depletion of calcium,[2]; 5 mM EGTA,remained intact
same,inhibition of NR1-1a/2A NMDA receptor-mediated cell death,[3],38±3.6%
N[C@@H](CCC(=O)O)C(=O)O [Glutamate],CO-IP of GAPDH by the GluR2 subunit antibody on agonist activation,GAPDH:AMPAR complex [1],increase
"Cc1ccc(-c2cn3c4c(sc3n2)CCCC4)cc1 [cyclic PFT-α, reference compound]",inhibition of GluR1/3 AMPAR-mediated (glutamate-induced) cell death,[4],failed to inhibit
same,attenuation/inhibition of AMPAR-mediated (glutamate-induced) cell death,[2],49.8±8.3%
GST-GAPDH(2-2-1-1): GST-fusion protein encoding truncated GAPDH fragment I221-E250,pull down of p53,p53,specifically pulled down
GST-GluR2 NT1-3-2: GST-fusion protein of GluR2 NT1-3-2 Y142-K172 (YYQWDKFAYLYDSDRGLSTLQAVLDSAAEKK; not fully specified (N-terminus); also: GST fusion partner),binding of [35S]-GAPDH probe,[35S]-GAPDH,bound
same,affinity precipitation of GAPDH (Western blot),GAPDH,presence of GAPDH
GluR2 NT1-3-2 peptide: polypeptide of the GluR2 NT1-3-2 (Y142-K172) amino acid sequence (SEQ ID NO:1) (YYQWDKFAYLYDSDRGLSTLQAVLDSAAEKK; Y142-K172 of GluR2 subunit receptor from homo sapiens),nuclear translocation of GAPDH and GluR2,hippocampal neurons,blocked
same,"neurons rescued from cell death, peptide treatment before ischemia",hippocampal CA1 neurons; 30 min before ischemia,18.2%
same,"neurons rescued from cell death, peptide treatment after ischemia",hippocampal CA1 neurons; 2 hour after ischemia,13.2%
same,agonist-induced GAPDH internalization after preincubation of peptide,[5],abolished
same,effect of the peptide itself in the absence of GluR1/GluR2 co-expression,[6],no effect
same,inhibition of GluR1/3 AMPAR-mediated (glutamate-induced) cell death,[4],failed to inhibit
same,agonist-induced increase in GAPDH:AMPAR complex formation,"GAPDH:AMPAR complex [1]; preincubation 10 μM, 1 hour, 100 μM glutamate, 30 min",significantly inhibited
same,nuclear translocation of GAPDH and GluR2,[7],blocked
same,effect of the peptide itself on cell death in the absence of glutamate treatment,"[2]; GluR1/2 transfected cells, no glutamate",no effect
same,attenuation/inhibition of AMPAR-mediated (glutamate-induced) cell death,[2],56±1.6%
same,agonist-induced increase in GAPDH:AMPAR complex formation,GAPDH:AMPAR complex [8],significantly inhibited
same,inhibition of AMPAR-mediated cell death,[9],47.6±3.3%
same,GAPDH-p53 interaction after peptide pretreatment,GAPDH-p53 interaction,inhibited
